This note sets out measurements from ChEMBL document CHEMBL1141614, “Selective COX-2 inhibitors. Part 2: synthesis and biological evaluation of 4-benzylideneamino- and 4-phenyliminomethyl-benzenesulfonamides” (Bioorg Med Chem, 2008).

As usually defined, the IC50 is the midpoint of a concentration-inhibition curve.

Test [1] addresses Prostaglandin G/H synthase 1 (Homo sapiens, UniProt P23219). It is filed as tissue-based, Blood.
Description: Inhibition of COX1 in human whole blood assessed as effect on A-23187-stimulated TxB2 production
The target of test [2] is T1, Prostaglandin G/H synthase 2 (Homo sapiens, UniProt P35354).
T1 sequence (P35354 whole entry): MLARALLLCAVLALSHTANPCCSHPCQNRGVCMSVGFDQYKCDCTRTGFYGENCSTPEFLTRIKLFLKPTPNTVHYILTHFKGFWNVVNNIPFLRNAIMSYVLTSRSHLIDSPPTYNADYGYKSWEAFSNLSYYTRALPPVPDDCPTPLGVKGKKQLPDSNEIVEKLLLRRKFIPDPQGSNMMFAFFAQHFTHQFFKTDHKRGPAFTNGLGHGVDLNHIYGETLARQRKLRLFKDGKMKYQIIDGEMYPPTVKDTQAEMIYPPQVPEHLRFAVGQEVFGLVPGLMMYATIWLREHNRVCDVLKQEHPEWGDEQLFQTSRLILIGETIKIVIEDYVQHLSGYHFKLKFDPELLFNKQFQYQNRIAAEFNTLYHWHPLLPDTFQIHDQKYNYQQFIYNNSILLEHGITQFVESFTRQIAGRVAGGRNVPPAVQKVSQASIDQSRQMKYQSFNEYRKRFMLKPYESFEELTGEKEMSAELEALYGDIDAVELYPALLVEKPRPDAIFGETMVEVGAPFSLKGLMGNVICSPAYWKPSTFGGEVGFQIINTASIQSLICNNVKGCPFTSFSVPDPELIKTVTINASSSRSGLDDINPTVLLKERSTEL
Description: Inhibition of COX2 in human whole blood assessed as effect on LPS-stimulated PGE2 production.

Prostaglandin G/H synthase 1, sequence (P23219 whole entry): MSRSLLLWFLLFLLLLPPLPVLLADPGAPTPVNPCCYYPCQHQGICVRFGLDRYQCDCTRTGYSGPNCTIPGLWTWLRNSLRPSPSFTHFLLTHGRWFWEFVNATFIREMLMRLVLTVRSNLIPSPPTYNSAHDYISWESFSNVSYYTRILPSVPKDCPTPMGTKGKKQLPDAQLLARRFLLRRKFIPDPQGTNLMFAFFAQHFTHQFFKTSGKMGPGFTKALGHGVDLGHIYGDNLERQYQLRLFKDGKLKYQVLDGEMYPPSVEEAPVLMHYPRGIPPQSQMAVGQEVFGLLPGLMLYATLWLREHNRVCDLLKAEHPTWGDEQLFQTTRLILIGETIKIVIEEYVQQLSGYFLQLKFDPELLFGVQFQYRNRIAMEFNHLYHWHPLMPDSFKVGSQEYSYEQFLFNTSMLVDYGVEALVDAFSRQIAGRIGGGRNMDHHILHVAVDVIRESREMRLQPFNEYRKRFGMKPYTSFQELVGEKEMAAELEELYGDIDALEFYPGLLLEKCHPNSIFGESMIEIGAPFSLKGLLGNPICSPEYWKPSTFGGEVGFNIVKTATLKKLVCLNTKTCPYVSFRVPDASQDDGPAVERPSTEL

Turning to `COC(=O)c1ccc(/N=C/c2ccc(S(N)(=O)=O)cc2)cc1`, the results for the IC50 in test [1] and in test [2] were 56.7 µM and 3.72 µM, respectively.
For the compound `NS(=O)(=O)c1ccc(/N=C/c2ccc([N+](=O)[O-])cc2)cc1`, the IC50 was found to be 141 µM in test [1] and 3 µM in test [2].
For `COc1ccc(/N=C/c2ccc(S(N)(=O)=O)cc2)cc1`, in that order: 60.7 µM and 4.14 µM.
For `COc1ccc(/C=N/c2ccc(S(N)(=O)=O)cc2)cc1O`, in that order: 43.8 µM and 3.5 µM.
Turning to `COc1cc(/C=N/c2ccc(S(N)(=O)=O)cc2)cc(OC)c1O`, the IC50 in test [1] worked out at 156 µM; in test [2], 2.71 µM.
Taken in the same sequence, the figures for `NS(=O)(=O)c1ccc(/N=C/c2cccc(O)c2)cc1` were 38.2 µM and 2.78 µM.
For `NS(=O)(=O)c1ccc(/N=C/c2ccc(C(F)(F)F)cc2)cc1`, in that order: 182 µM and 4.6 µM.
As to `CCOc1cc(/C=N/c2ccc(S(N)(=O)=O)cc2)ccc1O`, the IC50 in test [1] was 47.9 µM; in test [2], 3.69 µM.
Taken in the same sequence, the figures for `NS(=O)(=O)c1ccc(/N=C/c2ccc(O)c(O)c2)cc1` were 23.2 µM and 2.85 µM.
For `COc1cc(/C=N/c2ccc(S(N)(=O)=O)cc2)ccc1O`, the IC50 stood at 78.2 µM in test [1] and 2.95 µM in test [2].
For `NS(=O)(=O)c1ccc(/N=C/c2ccc(O)cc2)cc1`, in that order: 148 µM and 3.42 µM.
In the case of `CN(C)c1ccc(/C=N/c2ccc(S(N)(=O)=O)cc2)cc1`, the results for the IC50 in test [1] and in test [2] were 196 µM and 3.36 µM, respectively.
Turning to `COc1ccc(/N=C/c2ccc(S(N)(=O)=O)cc2)cc1OC`, the figures for the IC50 in test [1] and in test [2] were 31.3 µM and 4.28 µM, respectively.
For `COc1cc(/C=N/c2ccc(S(N)(=O)=O)cc2)cc(OC)c1`, in that order: 110 µM and 3.4 µM.
With `NS(=O)(=O)c1ccc(/C=N/c2ccc(C(F)(F)F)cc2)cc1`, the IC50 came to 43.9 µM in test [1] and 6.54 µM in test [2].
For `COc1ccc(/C=N/c2ccc(S(N)(=O)=O)cc2)cc1OC`, in that order: 110 µM and 3.09 µM.
On to `COc1ccc(/C=N/c2ccc(S(N)(=O)=O)cc2)cc1`, for which the IC50 in test [1] was found to be 314 µM; in test [2] it was 9.88 µM.
For `COc1cccc(/C=N/c2ccc(S(N)(=O)=O)cc2)c1`, in that order: 383 µM and 5.45 µM.
Taken in the same sequence, the figures for `Cc1ccc(/N=C/c2ccc(S(N)(=O)=O)cc2)cc1` were 63.2 µM and 4.62 µM.
For `NS(=O)(=O)c1ccc(/C=N/c2ccc(F)cc2)cc1`, in that order: 80.2 µM and 4.38 µM.
Regarding `NS(=O)(=O)c1ccc(/C=N/c2ccc(O)cc2)cc1`, the IC50 stood at 51.8 µM in test [1] and 5.09 µM in test [2].
Taken in the same sequence, the figures for `COc1cc(/C=N/c2ccc(S(N)(=O)=O)cc2)cc(OC)c1OC` were 167 µM and 2.93 µM.
For `NS(=O)(=O)c1ccc(/N=C/c2cccc([N+](=O)[O-])c2)cc1`, in that order: 106 µM and 6.75 µM.
With `NS(=O)(=O)c1ccc(/N=C/c2ccc(O)c(C(=O)O)c2)cc1`, the IC50 came out at 85.1 µM in test [1] and 0.74 µM in test [2].
Taken in the same sequence, the figures for `COC(=O)c1ccc(/C=N/c2ccc(S(N)(=O)=O)cc2)cc1` were 184 µM and 2.73 µM.
With `NS(=O)(=O)c1ccc(/C=N/c2ccccc2)cc1`, the IC50 stood at 63.6 µM in test [1] and 3.11 µM in test [2].
For `NS(=O)(=O)c1ccc(/N=C/c2ccccc2)cc1`, in that order: 108 µM and 2.87 µM.
Consider `CN(C)c1ccc(/N=C/c2ccc(S(N)(=O)=O)cc2)cc1`, for which the IC50 was 64.4 µM in test [1] and 1.95 µM in test [2].
In the case of `NS(=O)(=O)c1ccc(/N=C/c2ccc(F)cc2)cc1`, the half-inhibitory concentration (IC50) turned out to be 159 µM in test [1] and 2.22 µM in test [2].
Taken in the same sequence, the figures for `Cc1ccc(/C=N/c2ccc(S(N)(=O)=O)cc2)cc1` were 190 µM and 4.94 µM.
As for `COC(=O)c1cc(/N=C/c2ccc(S(N)(=O)=O)cc2)ccc1O`, the IC50 in test [1] amounted to 24 µM; in test [2], 3.13 µM.
